Test results published in PubChem BioAssay (NCI).
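Interpolation was linear, between the two tested concentrations surrounding the appropriate level; five concentrations were tested over 48 hours in 96-well plates. Definition used: TGI = concentration required for complete inhibition of growth.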

Legend:
Experiment in all cases: growth of human tumour cells (NCI), 48 h
HCT-116 colon = tested on: HCT-116 colon
SF-539 CNS = tested on: SF-539 CNS
HT29 colon = tested on: HT29 colon
OVCAR-5 ovarian = tested on: OVCAR-5 ovarian
HOP-92 NSCLC = tested on: HOP-92 NSCLC
NCI-H23 lung = tested on: NCI-H23 lung
SNB-19 CNS = tested on: SNB-19 CNS
SK-MEL-28 melanoma = tested on: SK-MEL-28 melanoma
SW-620 colon = tested on: SW-620 colon
KM12 colon = tested on: KM12 colon
RPMI-8226 leukemia = tested on: RPMI-8226 leukemia
EKVX NSCLC = tested on: EKVX NSCLC
SF-295 CNS = tested on: SF-295 CNS
HCT-15 colon = tested on: HCT-15 colon
HOP-62 NSCLC = tested on: HOP-62 NSCLC
MOLT-4 leukemia = tested on: MOLT-4 leukemia
M14 melanoma = tested on: M14 melanoma
786-0 renal = tested on: 786-0 renal
COLO 205 colon = tested on: COLO 205 colon
CAKI-1 renal = tested on: CAKI-1 renal
LXFL 529 NSCLC = tested on: LXFL 529 NSCLC
A498 renal = tested on: A498 renal
UACC-62 melanoma = tested on: UACC-62 melanoma
NCI-H522 lung = tested on: NCI-H522 lung
RXF 393 renal = tested on: RXF 393 renal
NCI-H226 lung = tested on: NCI-H226 lung
UO-31 renal = tested on: UO-31 renal
K-562 leukemia = tested on: K-562 leukemia
OVCAR-8 ovarian = tested on: OVCAR-8 ovarian
DMS 114 small cell lung = tested on: DMS 114 small cell lung
SR leukemia = tested on: SR leukemia
A549 NSCLC = tested on: A549 NSCLC
SNB-78 CNS = tested on: SNB-78 CNS
SK-MEL-5 melanoma = tested on: SK-MEL-5 melanoma
CCRF-CEM leukemia = tested on: CCRF-CEM leukemia
OVCAR-3 ovarian = tested on: OVCAR-3 ovarian
U251 CNS = tested on: U251 CNS
SF-268 CNS = tested on: SF-268 CNS
OVCAR-4 ovarian = tested on: OVCAR-4 ovarian
SN12C renal = tested on: SN12C renal
MALME-3M melanoma = tested on: MALME-3M melanoma
SK-OV-3 ovarian = tested on: SK-OV-3 ovarian
NCI-H460 lung = tested on: NCI-H460 lung
IGROV1 ovarian = tested on: IGROV1 ovarian
ACHN renal = tested on: ACHN renal
SK-MEL-2 melanoma = tested on: SK-MEL-2 melanoma
HCC-2998 colon = tested on: HCC-2998 colon
UACC-257 melanoma = tested on: UACC-257 melanoma
LOX IMVI melanoma = tested on: LOX IMVI melanoma
SNB-75 CNS = tested on: SNB-75 CNS
DLD-1 colon = tested on: DLD-1 colon
M19-MEL melanoma = tested on: M19-MEL melanoma
HL-60(TB) leukemia = tested on: HL-60(TB) leukemia
HOP-18 NSCLC = tested on: HOP-18 NSCLC
TK-10 renal = tested on: TK-10 renal

Q: What does the source list for O=C(Nc1cccc([N+](=O)[O-])c1)/C(=N\NC(=O)c1ccncc1)c1nc2ccc([N+](=O)[O-])cc2[nH]c1=O?
A: TGI (HCT-116 colon): > 100 µM; TGI (SF-539 CNS): > 100 µM; TGI (HT29 colon): > 100 µM; TGI (OVCAR-5 ovarian): > 100 µM; TGI (HOP-92 NSCLC): > 100 µM; TGI (NCI-H23 lung): > 100 µM; TGI (SNB-19 CNS): > 100 µM; TGI (SK-MEL-28 melanoma): > 100 µM; TGI (SW-620 colon): > 100 µM; TGI (KM12 colon): > 100 µM; TGI (RPMI-8226 leukemia): > 100 µM; TGI (EKVX NSCLC): > 100 µM; TGI (SF-295 CNS): > 100 µM; TGI (HCT-15 colon): > 100 µM; TGI (HOP-62 NSCLC): > 100 µM; TGI (MOLT-4 leukemia): > 100 µM; TGI (M14 melanoma): > 100 µM; TGI (786-0 renal): > 100 µM; TGI (COLO 205 colon): > 100 µM; TGI (CAKI-1 renal): > 100 µM; TGI (LXFL 529 NSCLC): > 100 µM; TGI (A498 renal): > 100 µM; TGI (UACC-62 melanoma): > 100 µM; TGI (NCI-H522 lung): > 100 µM; TGI (RXF 393 renal): > 100 µM; TGI (NCI-H226 lung): > 100 µM; TGI (UO-31 renal): > 100 µM; TGI (K-562 leukemia): > 100 µM; TGI (OVCAR-8 ovarian): > 100 µM; TGI (DMS 114 small cell lung): > 100 µM; TGI (SR leukemia): > 100 µM; TGI (A549 NSCLC): > 100 µM; TGI (SNB-78 CNS): > 100 µM; TGI (SK-MEL-5 melanoma): > 100 µM; TGI (CCRF-CEM leukemia): > 100 µM; TGI (OVCAR-3 ovarian): > 100 µM; TGI (U251 CNS): > 100 µM; TGI (SF-268 CNS): > 100 µM; TGI (OVCAR-4 ovarian): > 100 µM; TGI (SN12C renal): > 100 µM; TGI (MALME-3M melanoma): > 100 µM; TGI (SK-OV-3 ovarian): > 100 µM; TGI (NCI-H460 lung): > 100 µM; TGI (IGROV1 ovarian): > 100 µM; TGI (ACHN renal): > 100 µM; TGI (SK-MEL-2 melanoma): > 100 µM; TGI (HCC-2998 colon): 93.8 µM; TGI (UACC-257 melanoma): > 100 µM; TGI (LOX IMVI melanoma): > 100 µM

Q: CC1(CO)OC(n2cnc3c(N)ncnc32)C(O)C1O (stereo not given) was tested. Which TGI (HCT-116 colon) did it give?
A: > 100 µM

Q: What about the TGI (SF-539 CNS) of the same molecule?
A: > 100 µM

Q: What about the TGI (HT29 colon) of the same molecule?
A: > 100 µM

Q: And the TGI (OVCAR-5 ovarian)?
A: > 100 µM

Q: What about the TGI (HOP-92 NSCLC) of the same molecule?
A: > 100 µM

Q: What about the TGI (NCI-H23 lung) of the same molecule?
A: > 100 µM

Q: And the TGI (SNB-19 CNS)?
A: > 100 µM

Q: And the TGI (SK-MEL-28 melanoma)?
A: > 100 µM

Q: What about the TGI (SW-620 colon) of the same molecule?
A: > 100 µM

Q: And the TGI (KM12 colon)?
A: > 100 µM

Q: What about the TGI (RPMI-8226 leukemia) of the same molecule?
A: > 100 µM

Q: And the TGI (SF-295 CNS)?
A: > 100 µM

Q: And the TGI (SNB-75 CNS)?
A: > 100 µM

Q: And the TGI (HCT-15 colon)?
A: > 100 µM

Q: And the TGI (DLD-1 colon)?
A: > 100 µM

Q: What about the TGI (HOP-62 NSCLC) of the same molecule?
A: > 100 µM

Q: And the TGI (MOLT-4 leukemia)?
A: > 100 µM

Q: And the TGI (M14 melanoma)?
A: > 100 µM

Q: And the TGI (786-0 renal)?
A: > 100 µM

Q: And the TGI (COLO 205 colon)?
A: > 100 µM

Q: What about the TGI (CAKI-1 renal) of the same molecule?
A: > 100 µM

Q: And the TGI (LXFL 529 NSCLC)?
A: > 100 µM

Q: And the TGI (A498 renal)?
A: > 100 µM

Q: And the TGI (UACC-62 melanoma)?
A: > 100 µM

Q: What about the TGI (NCI-H522 lung) of the same molecule?
A: > 100 µM

Q: What about the TGI (M19-MEL melanoma) of the same molecule?
A: > 100 µM

Q: And the TGI (RXF 393 renal)?
A: > 100 µM

Q: What about the TGI (UO-31 renal) of the same molecule?
A: > 100 µM

Q: And the TGI (HL-60(TB) leukemia)?
A: > 100 µM

Q: And the TGI (K-562 leukemia)?
A: > 100 µM

Q: What about the TGI (OVCAR-8 ovarian) of the same molecule?
A: > 100 µM

Q: What about the TGI (DMS 114 small cell lung) of the same molecule?
A: > 100 µM

Q: And the TGI (SR leukemia)?
A: > 100 µM

Q: What about the TGI (HOP-18 NSCLC) of the same molecule?
A: > 100 µM

Q: And the TGI (A549 NSCLC)?
A: > 100 µM

Q: And the TGI (SK-MEL-5 melanoma)?
A: > 100 µM

Q: What about the TGI (CCRF-CEM leukemia) of the same molecule?
A: > 100 µM

Q: And the TGI (OVCAR-3 ovarian)?
A: > 100 µM

Q: And the TGI (U251 CNS)?
A: > 100 µM

Q: And the TGI (SF-268 CNS)?
A: > 100 µM

Q: What about the TGI (OVCAR-4 ovarian) of the same molecule?
A: > 100 µM

Q: And the TGI (SN12C renal)?
A: > 100 µM

Q: What about the TGI (MALME-3M melanoma) of the same molecule?
A: > 100 µM

Q: What about the TGI (TK-10 renal) of the same molecule?
A: > 100 µM

Q: And the TGI (SK-OV-3 ovarian)?
A: > 100 µM

Q: What about the TGI (NCI-H460 lung) of the same molecule?
A: > 100 µM

Q: And the TGI (IGROV1 ovarian)?
A: > 100 µM

Q: What about the TGI (ACHN renal) of the same molecule?
A: > 100 µM

Q: And the TGI (SK-MEL-2 melanoma)?
A: > 100 µM

Q: And the TGI (HCC-2998 colon)?
A: > 100 µM

Q: What about the TGI (LOX IMVI melanoma) of the same molecule?
A: > 100 µM
